System: genes related to myelination; myelination and myelin sheath pathway
Assay: gene expression and KEGG pathway analysis of brain samples, cross-fostering to St6Gal1 KO dams
Format: in vivo, mice
Conditions: presence in maternal milk, especially during early life
Source text: Adult wild-type (WT) B6.129 and heterozygous (HZ) B6.129-St6gal1^tm2Jxm breeding pairs (four males and four females and three males and four females, respectively) were purchased from a commercial breeder (The Jackson Laboratory). Upon arrival, same-sex mice were housed in same-sex groups of 2-3 in type-1 polycarbonate cages (33.0×13.0×14.0 cm) equipped with sawdust bedding, an enrichment bag (Mucedola, Settimo Milanese, Italy), metal top and ad libitum water and food pellets (Mucedola, Settimo Milanese, Italy). Mice were maintained on a reversed 12-h-light-dark cycle (light on at 7:00 PM) in an air-conditioned room (temperature 21±1° C. and relative humidity 60±10%). Two weeks after arrival, breeding triads (one male, two females) were formed. After two weeks of mating, male mice were removed and females were housed individually in standard type-1 cages. Females were checked daily for delivery and the day in which they gave birth was designated as postnatal day (PND) 0. […]
Quantification is performed using Quant It Ribogreen assay (Life Technologies) QC assessment is performed using Standard sensitivity RNA kit on Fragment Analyzer 96 (Agilent). […]
Library generation starts with oligodT priming containing the Illumina-specific Read 2 linker sequence. […] The random primer contains the Illumina-specific Read 1 linker sequence. […]

For `CC(=O)N[C@H]1[C@H]([C@H](O)[C@H](O)CO)O[C@@](OC[C@H]2O[C@@H](O[C@H]3[C@H](O)[C@@H](O)[C@H](O)O[C@@H]3CO)[C@H](O)[C@@H](O)[C@H]2O)(C(=O)O)C[C@@H]1O` [6′-SL, 6′-sialyllactose], the “optimal myelination of the prefrontal cortex” value was “necessary”.
